≈ marks a conversion by molar mass, not a printed value. Where only a bound is given, the exact number is not on record here.

In data set [1] the target is T1, P2Y purinoceptor 12 (Homo sapiens, UniProt Q9H244). The experiment in a line: Inhibition of human P2Y12 receptor expressed in CHO cells in presence of 0.4% human serum albumin.
Data set [2] can be described thus: Protein binding in human plasma assessed as fraction unbound at 2 uM.
A short description of data set [3]: Solubility at pH 2.0. Format: physicochemical. As to conditions: buffer.
Data set [4] in a line: Metabolic stability in rat microsomes. It is filed as ADME, Microsome.
A short description of data set [5]: Protein binding in human plasma assessed as fraction unbound at 0.2 uM.
The nature of data set [6]: Metabolic stability in human microsomes. It is filed as ADME, Microsome.
Another data set has as its system Rattus norvegicus. The experiment in a line: Toxicity in rat administered as single dose. It is filed as organism-based. As to conditions: in vivo.
Data set [7] is described as follows: Effective half life in Sprague-Dawley rat at 2 mg/kg, iv and 5 mg/kg, po. Format: ADME, organism-based. As to conditions: in vivo, read-out: t1/2eff (converted).
A short description of data set [8]: Protein binding in human plasma assessed as fraction unbound at 10 uM.
A short description of data set [9]: Volume of distribution at steady state in Beagle dog at 0.5 mg/kg, iv and 1 mg/kg, po. It is filed as ADME, organism-based, Canis lupus familiaris. To be noted: in vivo, read-out: Vdss.
A short description of data set [10]: Volume of distribution at steady state in Sprague-Dawley rat at 2 mg/kg, iv and 5 mg/kg, po. Format: ADME, organism-based. As to conditions: in vivo, read-out: Vdss.
Data set [11] in a line: Effective half life in Beagle dog at 0.5 mg/kg, iv and 1 mg/kg, po. Format: ADME, organism-based, Canis lupus familiaris. To be noted: in vivo.
The nature of data set [12]: Clearance in Beagle dog at 0.5 mg/kg, iv and 1 mg/kg, po. Format: ADME, organism-based, Canis lupus familiaris. To be noted: in vivo.
Data set [13] can be described thus: Clearance in Sprague-Dawley rat at 2 mg/kg, iv and 5 mg/kg, po. Format: ADME, organism-based. To be noted: in vivo.
Data set [14] addresses T1, P2Y purinoceptor 12. In words: Inhibition of human P2Y12 receptor expressed in CHO cells.
Data set [15] can be described thus: Antiplatelet activity in human platelet rich plasma assessed as inhibition of ADP-induced platelet aggregation relative to AZD-6140. Format: functional.
The nature of data set [16]: Solubility at pH 6.5. It is filed as physicochemical. To be noted: buffer.
In data set [17] the target is Voltage-gated inwardly rectifying potassium channel KCNH2 (Homo sapiens, UniProt Q12809). In words: Inhibition of human ERG.
Sequence of Voltage-gated inwardly rectifying potassium channel KCNH2 (Q12809 whole entry): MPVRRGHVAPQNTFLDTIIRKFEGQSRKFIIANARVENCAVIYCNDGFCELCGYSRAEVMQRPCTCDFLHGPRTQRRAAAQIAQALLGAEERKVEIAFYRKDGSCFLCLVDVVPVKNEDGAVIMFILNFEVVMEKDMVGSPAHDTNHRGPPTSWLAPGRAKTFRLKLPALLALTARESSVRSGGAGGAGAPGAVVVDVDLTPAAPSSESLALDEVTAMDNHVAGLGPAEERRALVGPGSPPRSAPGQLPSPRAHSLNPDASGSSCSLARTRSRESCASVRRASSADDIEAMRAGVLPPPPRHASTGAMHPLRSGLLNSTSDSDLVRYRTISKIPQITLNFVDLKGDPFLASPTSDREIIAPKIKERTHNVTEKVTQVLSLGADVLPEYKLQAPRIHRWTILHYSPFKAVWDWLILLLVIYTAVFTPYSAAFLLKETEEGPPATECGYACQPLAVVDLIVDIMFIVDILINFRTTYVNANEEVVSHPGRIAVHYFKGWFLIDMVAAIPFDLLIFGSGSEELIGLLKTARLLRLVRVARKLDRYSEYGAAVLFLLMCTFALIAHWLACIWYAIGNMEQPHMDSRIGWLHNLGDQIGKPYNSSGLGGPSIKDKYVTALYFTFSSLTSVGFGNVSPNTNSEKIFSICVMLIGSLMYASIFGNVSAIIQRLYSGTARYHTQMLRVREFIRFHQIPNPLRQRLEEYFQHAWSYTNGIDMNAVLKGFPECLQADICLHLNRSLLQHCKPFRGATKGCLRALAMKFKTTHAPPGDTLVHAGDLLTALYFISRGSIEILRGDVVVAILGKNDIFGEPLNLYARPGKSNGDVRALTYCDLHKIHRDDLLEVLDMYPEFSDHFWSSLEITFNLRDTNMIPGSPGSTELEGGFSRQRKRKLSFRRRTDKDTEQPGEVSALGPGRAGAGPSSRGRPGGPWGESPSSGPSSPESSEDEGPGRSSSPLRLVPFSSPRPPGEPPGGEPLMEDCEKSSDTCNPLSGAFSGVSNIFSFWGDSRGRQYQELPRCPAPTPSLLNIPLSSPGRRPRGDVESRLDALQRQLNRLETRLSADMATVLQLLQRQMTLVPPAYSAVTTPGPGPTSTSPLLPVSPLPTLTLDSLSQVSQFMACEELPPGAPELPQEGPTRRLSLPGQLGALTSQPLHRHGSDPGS
Data set [18] can be described thus: Antiplatelet activity in human platelet rich plasma assessed as inhibition of ADP-induced platelet aggregation by chronolog PRP aggregometry assay. It is filed as functional.
Data set [19] in a line: Solubility at pH 9.0. Format: physicochemical. To be noted: buffer.
Data set [20] is described as follows: Antiplatelet activity in human platelet rich plasma assessed as inhibition of ADP-induced platelet aggregation. Format: functional.
A further data set can be described thus: in vivo. To be noted: Sprague-Dawley, rat, po, 5 mg/kg.

T1 sequence (Q9H244 whole entry): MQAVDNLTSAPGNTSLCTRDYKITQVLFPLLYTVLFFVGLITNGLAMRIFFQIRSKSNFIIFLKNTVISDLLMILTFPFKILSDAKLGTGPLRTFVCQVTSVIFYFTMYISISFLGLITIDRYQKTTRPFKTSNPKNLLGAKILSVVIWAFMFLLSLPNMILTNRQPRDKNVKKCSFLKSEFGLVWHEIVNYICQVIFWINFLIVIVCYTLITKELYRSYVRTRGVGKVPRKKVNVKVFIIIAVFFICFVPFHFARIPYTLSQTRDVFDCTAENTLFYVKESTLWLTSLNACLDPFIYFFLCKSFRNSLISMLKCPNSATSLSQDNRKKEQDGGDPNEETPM

What is called Ki is the dissociation constant of the complex between target and ligand, obtained from inhibition or displacement. Broadly, the fraction unbound is free concentration divided by total concentration. As a reminder, the solubility is how much of the substance goes into solution per volume. Read a low solubility as a poorly soluble substance. As usually defined, the IC50 is the midpoint of a concentration-inhibition curve. For `CCCCOC(=O)N1CCN(C(=O)[C@H](CCC(=O)O)NC(=O)c2cc(N3CCC(C(=O)N4CCCC4)CC3)cc(-c3ccccc3)n2)CC1`, the Ki at P2Y purinoceptor 12 [1] turned out to be 6.3 nM; on P2Y purinoceptor 12 [14] it was 2.1 nM. Moreover, in [2], the fraction unbound at 2 µM was found to be 0.044. In addition, the solubility in data set [3] came to 921 µM (≈ 623 µg/mL); in data set [16], 195 µM (≈ 132 µg/mL); in [19], 969 µM (≈ 656 µg/mL). Moreover, the Stability result in data set [4] and in [6] was “Stable” throughout. Further, the free fraction (fraction unbound) at 0.2 µM in data set [5] amounted to 0.034. In addition, in the data set on Rattus norvegicus, the Activity entry is on record as “Non-toxic”. Further, the half-life is 90 min in data set [7] and 48 min in [11]. Also, the fraction unbound at 10 µM in data set [8] came out at 0.033. Also, the Vd in data set [9] was determined as 0.22 L/kg; in data set [10] it was 0.7 L/kg. For the same compound, the clearance in [12] is 3 mL/min/kg; in data set [13], 5 mL/min/kg. Further, in data set [15], the “fold change (FC)” value is given as 0.54. In addition, the values for the IC50 in data set [17], in [18] and in [20] were greater than 90000 nM, 255 nM and 360 nM, respectively. Besides, the Kb in data set [20] was determined as 49 nM.
What is called bioavailability is dose-corrected exposure relative to a reference, in per cent. Low values mean little systemic uptake, high ones much systemic uptake. Turning to `CCCCCOC(=O)N1CCN(C(=O)[C@H](CCC(=O)O)NC(=O)c2cc(N3CCC(C(N)=O)CC3)cc(-c3ccccc3)n2)CC1`, the Stability result in data set [4] and in data set [6] was “Stable” each time. In addition, the half-life in [7] is 36 min. Further, the Vd in data set [10] is 2.2 L/kg. This compound registered a clearance in data set [13] of 44 mL/min/kg. This compound also gave a Ki on P2Y purinoceptor 12 [14] of 6.5 nM. Further, the “fold change (FC)” value in data set [15] turned out to be 0.9. Also, in data set [20], the IC50 was determined as 2400 nM. This compound registered a bioavailability in “in vivo” of 2%.

The values are drawn from ChEMBL document CHEMBL1156904, “Part II: piperazinyl-glutamate-pyridines as potent orally bioavailable P2Y12 antagonists for inhibition of platelet aggregation” (Bioorg Med Chem Lett, 2010).
